Literature values, collected in patent US6676959B1, “Nicotine-containing pharmaceutical compositions giving a rapid transmucosal absorption” (priority 1998, dated 2004).

Details: after starting smoking

CN1CCCC1c1cccnc1 (stereo not shown) [nicotine]
Time to peak blood levels of nicotine: 5 to 10 min
